This assay concerns 922993-354-T-J3-PDC complex spheroids, viability. The assay is described as follows: Anticancer human tumor 922993-354-T-J3-PDC patient-derived endometrial carcinoma cell line growth inhibition [GQUAD]. The conditions noted are these: for viability, T/C: stronger effect = lower value. From the text:
DNA G-quadruplex Stabilizer Agents in Combinations in Complex Spheroids
A high-throughput screen of multi-cell type tumor spheroids was designed to identify active combinations of DNA G-quadruplex stabilizer agents and targeted small molecules. Complex spheroids include a stromal component modeled by human endothelial cells (HUVEC) and fibroblasts modeled by human mesenchymal stem cells (MSCs). The concentration ranges selected for each drug and investigational agent were based upon clinically achievable concentrations if the clinical Cmax of the agent was known.
Compounds. The drugs and investigational agents: pidnarulex (CX-5461; NSC782164), APTO-253 (NSC789042), BRACO-19 (NSC847499), peposertib (NSC802822), ceralasertib (NSC780249), elimusertib (NSC800525), camonsertib (NSC841442), AZD-1390 (NSC803789), olaparib (NSC753686), talazoparib (NSC767125), ART-558 (NSC835418), sotorasib (NSC818433), MRTX-1133 (NSC836407), SN-38 (NSC673596), topotecan (NSC609699), etoposide (NSC141540), doxorubicin (NSC123127), gemcitabine (NSC613327), 5-fluorouracil (NSC19893), paclitaxel (NSC125973), vemurafenib (NSC761431), panobinostat (NSC761190), R-306465 (JNJ-16241199; NSC773264), adavosertib (NSC754352), TP-3654 (NSC805149), carboplatin (NSC241240), KSQ-4279 (NSC840948), and staurosporine (NSC755774) were obtained from the National Cancer Institute (NCI) Developmental Therapeutics Program Chemical Repository (34). The FDA-approved anticancer drug set is available from the NCI Developmental Therapeutics Program. […] The stock solutions were prepared in dimethyl sulfoxide (DMSO, Sigma-Aldrich, St. Louis, MO, cat. D2650) at 800-fold the tested concentration and stored at -70 degrees C prior to their use. All drugs and investigational agents were tested over a range starting from a high concentration at or near the clinical Cmax and decreasing in half-log increments. If the clinical Cmax for an agent had not been determined, the highest concentration tested was 10 microM.
2.3 Cell Culture. All cells were maintained in an incubator at 37 degrees C and 5% CO2 with 95% humidity. The PDC lines were cultured according to standard operating procedures established by the NCI PDMR. All PDCs were thawed and cultured in Matrigel-coated flasks prepared with a working solution of 1X Ham's F-12 nutrient mix, without supplementation (Invitrogen, cat. 11765054), 100 U/mL penicillin-streptomycin (Invitrogen, cat. 15140122), and 2.5% Matrigel (Corning Inc., cat. 354248) for the first three passages. The 857933-349-R-J2-PDC line was cultured in 6C/Colon 1B media, which includes advanced DMEM/F-12 (Thermo Fisher Scientific, cat. 12634028), 10 mM HEPES (Thermo Fisher Scientific, cat. 15630080), 1X GlutaMAX supplement (Thermo Fisher Scientific, cat. 35050061), 0.1 mg/mL primocin (InvivoGen, cat. ant-pm-2), 10% defined fetal bovine serum, heat inactivated (HyClone Laboratories Inc., cat. SH30070.03HI), 50% L-WRN conditioned media (ATCC, cat. CRL-3276), 1.25 mM N-Acetyl-L-cysteine (Sigma-Aldrich, cat. A9165), 10 mM nicotinamide (Sigma-Aldrich, cat. N0636), 1X B-27 supplement (Thermo Fisher Scientific, cat. 17504044), 1X N-2 supplement (Thermo Fisher Scientific, cat. 17502048), 10 microM Y-27632 dihydrochloride (Tocris Bioscience, cat. 1254), and 50 ng/mL human EGF recombinant protein (Thermo Fisher Scientific, cat. PHG0311). The 485176-168-R4-J1-PDC line was cultured in Panc media, which includes all 6C/Colon 1B media components plus 100 ng/mL human FGF-10 (Thermo Fisher Scientific, cat. 100-26), 500 nM SB-431542 (Selleckchem, cat. S1067), and gastrin (Tocris, cat. 3006).
[…]

IC50 and viability, T/C data for four compounds are collected here from PubChem BioAssay AID2060489 (Molecular Pharmacology Branch, DTP, NCI, 2025).

Values joined by “and” are separate entries in the source; they are usually repeats but may differ in a detail not shown here. Identical values can stand only once. A value given as a limit tells only on which side of the number the result lay.
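Also: spheroids exposed to compounds for seven days.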

`CC(C)(O)C1CCC(Nc2ccc3ncc(-c4cccc(C(F)(F)F)c4)n3n2)CC1` (stereo not drawn) + Cc1cnc(CNC(=O)c2c(=O)c3ccc(N4CCCN(C)CC4)nc3n3c2sc2ccccc23)cn1: the IC50 – broadly, the concentration needed to halve the response being measured – is above 10000 nM (curve of first compound, second compound 0.0316 µM); above 10000 nM (curve of first compound, second compound 0.1 µM); 31.6 nM (curve of first compound, second compound 0.316 µM); below 31.6 nM (curve of first compound, second compound 1 µM); below 31.6 nM (curve of first compound, second compound 3.16 µM); below 31.6 nM (curve of first compound, second compound 10 µM). For the same compound, the viability, T/C (usually the ratio of treated to control) by setting is: (second compound 0.0316 µM, first compound 0.0316 µM) 89.5%; (second compound 0.0316 µM, first compound 0.1 µM) 97.4%; (second compound 0.0316 µM, first compound 0.316 µM) 67.9%; (second compound 0.0316 µM, first compound 1 µM) 90.6%; (second compound 0.0316 µM, first compound 3.16 µM) 105%; (second compound 0.0316 µM, first compound 10 µM) 84.1%. Further, the viability, T/C (second compound 0.1 µM, first compound 0.0316 µM) is 69%; the viability, T/C (second compound 0.1 µM, first compound 0.1 µM) is 71.9%; the viability, T/C (second compound 0.1 µM, first compound 0.316 µM) is 51.2%; the viability, T/C (second compound 0.1 µM, first compound 1 µM) is 59.6%; the viability, T/C (second compound 0.1 µM, first compound 3.16 µM) was 65.8%; the viability, T/C (second compound 0.1 µM, first compound 10 µM) is 67.6%. Besides, the viability, T/C (second compound 0.316 µM, first compound 0.0316 µM) was 48.6%; the viability, T/C (second compound 0.316 µM, first compound 0.1 µM) is 58.8%; the viability, T/C (second compound 0.316 µM, first compound 0.316 µM) is 48.4%; the viability, T/C (second compound 0.316 µM, first compound 1 µM) was 47.5%; the viability, T/C (second compound 0.316 µM, first compound 3.16 µM) was 65.9%; the viability, T/C (second compound 0.316 µM, first compound 10 µM) is 58.2%. The viability, T/C reads like this: (second compound 1 µM, first compound 0.0316 µM) 47.8%; (second compound 1 µM, first compound 0.1 µM) 51.8%; (second compound 1 µM, first compound 0.316 µM) 40.4%; (second compound 1 µM, first compound 1 µM) 53.1%; (second compound 1 µM, first compound 3.16 µM) 57.4%; (second compound 1 µM, first compound 10 µM) 54.8%. The viability, T/C was 40.7% (second compound 3.16 µM, first compound 0.0316 µM); 43.9% (second compound 3.16 µM, first compound 0.1 µM); 38.8% (second compound 3.16 µM, first compound 0.316 µM); 47.4% (second compound 3.16 µM, first compound 1 µM); 41.4% (second compound 3.16 µM, first compound 3.16 µM); 37.5% (second compound 3.16 µM, first compound 10 µM). In addition, the viability, T/C was 36.7% (second compound 10 µM, first compound 0.0316 µM); 47.4% (second compound 10 µM, first compound 0.1 µM); 31% (second compound 10 µM, first compound 0.316 µM); 18.5% (second compound 10 µM, first compound 1 µM); 9.55% (second compound 10 µM, first compound 3.16 µM); 4.71% (second compound 10 µM, first compound 10 µM).
On to `COc1cc(C2c3cc4c(cc3C(OC3OC5COC(C)OC5C(O)C3O)C3COC(=O)C23)OCO4)cc(OC)c1O` (stereo not drawn), for which the viability, T/C was 88.4% and 94.8% and 88.6% (compound 0.0316 µM); 89% and 80.4% and 92% (compound 0.1 µM); 76.1% and 86.3% and 92.8% (compound 0.316 µM); 89.5% and 99.4% and 80.7% (compound 1 µM); 74.5% and 95.4% and 76.1% (compound 3.16 µM); 56.4% and 62.6% and 37% (compound 10 µM). The IC50 (curve of compound) is > 10000 nM and 6750 nM.
For the compound `Cn1ncnc1[C@H]1c2n[nH]c(=O)c3cc(F)cc(c23)N[C@@H]1c1ccc(F)cc1`, the viability, T/C by setting is: (compound 0.000999 µM) 93.3% and 98.8% and 108%; (compound 0.00316 µM) 101% and 78.7% and 113%; (compound 0.00999 µM) 76.9% and 101% and 85.8%; (compound 0.0316 µM) 87.9% and 74.9% and 91.4%; (compound 0.0999 µM) 68.9% and 72% and 78.9%; (compound 0.316 µM) 54.5% and 62% and 59.1%. Besides, the IC50 (curve of compound) is above 316 nM.
In the case of `CC[C@@]1(O)C(=O)OCc2c1cc1n(c2=O)Cc2cc3c(CN(C)C)c(O)ccc3nc2-1`, the viability, T/C by setting is: (compound 0.000999 µM) 111% and 105% and 82.9%; (compound 0.00316 µM) 80.6% and 108% and 97.9%; (compound 0.00999 µM) 113% and 76.5% and 112%; (compound 0.0316 µM) 85.2% and 98.8% and 103%; (compound 0.0999 µM) 71% and 84.4% and 94.9%; (compound 0.316 µM) 48.6% and 38.9% and 38.2%. Besides, the IC50 (curve of compound) was 298 nM and 241 nM and 249 nM.
